Results as given in article PMC3502614 (Science (New York, N.Y.), 2011).

Target: T1, M. smegmatis RpsA (Mycolicibacterium smegmatis, UniProt A0QYY6)
T1 sequence (A0QYY6 1-479): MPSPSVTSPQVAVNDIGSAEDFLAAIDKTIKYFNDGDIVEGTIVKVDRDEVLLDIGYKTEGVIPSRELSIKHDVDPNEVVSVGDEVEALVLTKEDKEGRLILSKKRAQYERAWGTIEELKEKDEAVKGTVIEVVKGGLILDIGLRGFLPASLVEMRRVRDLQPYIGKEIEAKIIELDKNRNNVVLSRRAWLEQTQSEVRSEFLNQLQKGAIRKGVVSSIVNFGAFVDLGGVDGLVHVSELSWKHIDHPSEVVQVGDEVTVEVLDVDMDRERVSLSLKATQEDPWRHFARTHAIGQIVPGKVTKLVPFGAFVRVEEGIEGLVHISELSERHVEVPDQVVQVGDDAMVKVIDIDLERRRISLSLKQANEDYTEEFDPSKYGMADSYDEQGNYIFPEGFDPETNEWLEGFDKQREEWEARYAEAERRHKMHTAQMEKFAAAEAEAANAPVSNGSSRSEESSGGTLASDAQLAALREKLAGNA
Experiment: isothermal titration calorimetry
Format: binding

O=C(O)c1cnccn1 [POA, 2-pyrazinecarboxylic acid]
weak binding by ITC: RpsA from naturally PZA-resistant M. smegmatis bound to POA only very weakly
